How the values were obtained:
Test in all cases: relative viability (nuclei count vs DMSO), 5 days (fraction); higher = more cells survive
[1] = compound: Cc1ccc2nc(NCCN)c3ncc(C)n3c2c1 + Nc1nc2[nH]cc(CCc3ccc(C(=O)N[C@@H](CCC(=O)O)C(=O)O)cc3)c2c(=O)[nH]1 [Pemetrexed] (partner 0.2 µM)
Method in brief: (§1)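 Relative viability equals treated-well nuclei counts divided by vehicle-well nuclei counts. Counts came from 4× images of lung cancer cell lines grown in 1536-well plates for 5 days after pin-tool dosing on the day after seeding. Dosing used one drug alone or a fixed anchor-drug dose plus five library-drug doses (not always all listed) in √10 steps, and values are medians of duplicate plates.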

Salubrinal + OSI-027 = compound: O=C(/C=C/c1ccccc1)NC(NC(=S)Nc1cccc2cccnc12)C(Cl)(Cl)Cl [Salubrinal] + COc1cccc2cc(-c3nc([C@H]4CC[C@H](C(=O)O)CC4)n4ncnc(N)c34)[nH]c12 [OSI-027] (partner 0.5 µM)
Method in brief: as §1

Salubrinal + Decitabine = compound: O=C(/C=C/c1ccccc1)NC(NC(=S)Nc1cccc2cccnc12)C(Cl)(Cl)Cl [Salubrinal] + Nc1ncn([C@H]2C[C@H](O)[C@@H](CO)O2)c(=O)n1 [Decitabine] (partner 2 µM)
Method in brief: as §1

Salubrinal + Olaparib = compound: O=C(/C=C/c1ccccc1)NC(NC(=S)Nc1cccc2cccnc12)C(Cl)(Cl)Cl [Salubrinal] + O=C(c1cc(Cc2n[nH]c(=O)c3ccccc23)ccc1F)N1CCN(C(=O)C2CC2)CC1 [Olaparib] (partner 8 µM)
Method in brief: as §1

Row | Cell Line | relative viability ([1]; first compound 0.04 µM) | relative viability ([1]; first compound 0.1265 µM) | relative viability ([1]; first compound 0.4 µM) | relative viability ([1]; first compound 1.265 µM) | relative viability ([1]; first compound 4 µM) | relative viability (Salubrinal + OSI-027; first compound 0.08 µM) | relative viability (Salubrinal + OSI-027; first compound 0.253 µM) | relative viability (Salubrinal + OSI-027; first compound 0.8 µM) | relative viability (Salubrinal + OSI-027; first compound 2.53 µM) | relative viability (Salubrinal + OSI-027; first compound 8 µM) | relative viability (Salubrinal + Decitabine; first compound 0.08 µM) | relative viability (Salubrinal + Decitabine; first compound 0.253 µM) | relative viability (Salubrinal + Decitabine; first compound 0.8 µM) | relative viability (Salubrinal + Decitabine; first compound 2.53 µM) | relative viability (Salubrinal + Decitabine; first compound 8 µM) | relative viability (Salubrinal + Olaparib; first compound 0.08 µM) | relative viability (Salubrinal + Olaparib; first compound 0.253 µM) | relative viability (Salubrinal + Olaparib; first compound 0.8 µM) | relative viability (Salubrinal + Olaparib; first compound 2.53 µM) | relative viability (Salubrinal + Olaparib; first compound 8 µM)
1 | LCLC-97TM1 | 0.171 | 0.178 | 0.211 | 0.175 | 0.145 | 0.574 | 0.433 | 0.671 | 0.56 | 0.601 | 0.248 | 0.223 | 0.234 | 0.21 | 0.257 | 0.289 | 0.345 | 0.376 | 0.412 | 0.383
2 | NCI-H1703 | – | – | – | – | – | – | – | – | – | – | – | – | – | – | – | 0.414 | 0.721 | 0.416 | 0.486 | 0.385
3 | LCLC-103H | 0.503 | 0.51 | 0.5 | 0.467 | 0.494 | 0.494 | 0.393 | 0.5 | 0.49 | 0.398 | 0.772 | 0.696 | 0.718 | 0.782 | 0.608 | 0.866 | 0.572 | 0.853 | 0.769 | 0.76
4 | PC-3 [JPC-3] | 1.21 | 1.03 | 1.1 | 0.987 | 1.09 | 0.7 | 0.538 | 0.751 | 0.913 | 0.729 | 0.848 | 0.836 | 0.891 | 0.848 | 0.81 | 1.16 | 0.567 | 1.23 | 1.1 | 1.09
5 | BEN | 0.978 | 0.894 | 0.817 | 0.712 | 0.801 | 0.322 | 0.407 | 0.318 | 0.309 | 0.324 | 0.711 | 0.726 | 0.865 | 0.741 | 0.766 | 1.33 | 0.935 | 1.16 | 1.04 | 0.943

Source: the supplement of paper PMC10307832
